In patent publication US7439251B2, “Methods and compositions for treatment of central and peripheral nervous system disorders and novel compounds useful therefor” (Israel Institute for Biological Research, priority 2002, dated 2008):
Read-outs that look alike come from different tables or passages of the source.

Experiments:
[1] = mouse, in vivo
[2] = tested on: rat pheochromocytoma cells transfected with the M1 mAChR
[3] = Social memory (olfactory recognition) in naive rats; type: in vivo, rat; conditions: 0.5, 1 and 5 mg/kg p.o., vs placebo, dose-dependent
Experimental: Animals were kept at 21° C.±1, with an inverse light-dark cycle (light on from 2:00 P.M. to 2:00 A.M.). The sessions were conducted 7 hr into the dark part of the light/dark cycle, under red illumination. […] The time spent by the adult rat in investigating the juvenile rat was recorded. […] Thus under the influence of a purported memory enhancing drug, the time spent in investigating the same juvenile is expected to be reduced. […] Any reduction in social exploration of this different juvenile is thus considered as reflecting a nonspecific effect of the drug (i.e., not memory related). On no occasion was a subject tested twice with the same juvenile stimulus animal, nor was a juvenile used more than once in a 48-hr period. […] Time spent in social investigation of stimulus juvenile rat was measured (in sec) and then expressed for each animal as the ratio of the second exposure to the first exposure (Ratio of Investigation Duration (RID)). […] Analysis for repeated measurement was made by a 3-way ANOVA and post hoc comparisons were made by simple main effects contrasts analysis.

M1 mAChR = target: T1, M1 mAChR (Rattus norvegicus, UniProt P08482); test: α-APPs secretion in cell cultures stably transfected with M1 mAChR; type: cell-based; conditions: for α-APPs secretion (% of max CCh): maximal response vs 10^−4 M carbachol
T1 construct: expressed in transfected cells
T1 sequence (P08482 1-460): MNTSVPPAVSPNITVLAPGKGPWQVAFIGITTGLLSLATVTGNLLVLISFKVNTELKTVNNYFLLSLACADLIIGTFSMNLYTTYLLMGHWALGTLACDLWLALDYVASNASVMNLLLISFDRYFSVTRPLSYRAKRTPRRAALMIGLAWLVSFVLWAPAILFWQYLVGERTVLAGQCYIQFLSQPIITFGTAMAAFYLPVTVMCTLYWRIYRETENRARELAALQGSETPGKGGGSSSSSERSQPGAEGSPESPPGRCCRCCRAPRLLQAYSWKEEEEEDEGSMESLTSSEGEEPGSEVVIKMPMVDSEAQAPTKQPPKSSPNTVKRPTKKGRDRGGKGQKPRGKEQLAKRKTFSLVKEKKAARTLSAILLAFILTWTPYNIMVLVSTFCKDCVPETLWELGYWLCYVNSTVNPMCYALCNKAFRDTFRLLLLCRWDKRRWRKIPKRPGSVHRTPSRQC
Experimental: Cells were plated in 6 well culture plates and used at the age of 3-5 days after plating. […] Cells exposed to medium alone are referred as controls.
Cell supernatants were collected into Eppendorff tubes containing a cocktail of protease intubitors (5 units/ml aprotinin, […], 5 mg/ml leupeptin and 10^−4 M Phenylmethylsulfonylfluoride (PMSF, a protease inhibitor); Sigma, USA). The collected media were concentrated with Centricon tubes (Amicon, Beverly, Mass., USA) and kept frozen for α-APPs secretion determination. Equal amounts of protein (50-100 μg) were loaded and separated on 10% sodium dodecyl sulfate-polyacrylamide gel electrophoresis (SDS-PAGE) Followed by western blotting onto nitrocellulose membrane, blocked by fat-free milk, and probed for 24 hours at 4° C., with anti-Alzheimer's precursor protein, A4 monoclonal antibody 22C11 (0.25 μg/ml; Boehringer Mannheim, Germany). The nitrocellulose membranes were washed and incubated for 2 hours at room temperature with peroxidase-linked goat anti-mouse IgG antibodies (Jackson Immunoresearch, USA), followed by extensive washout and staining with enhanced chemiluminescence detection system (Amersham). Quantitative evaluation of the immunoreactive bands, on the exposed films, was performed by video-imaging densitometry (Gel-aid software; Galai Co., Israel). APPs levels were expressed as x-fold increase over basal levels.

[4] = Pharmacokinetic study in rats; type: in vivo, rat; conditions: for bioavailability: rat, plasma, po, Rats, read-out: Bioavailability (% F)
Text: The results of the PK profile of AF292 in rats and Beagle dogs (overnight fasting; drug administered in water solution; gavage) are listed in Table 1.

[5] = CNS safety, general observation and Irwin test in rats; type: in vivo, rat
Experimental: AF292 was evaluated in rodents for possible effects on general behavior and other […] related pharmacological effects.

[6] = Plasma levels of AF267B and its metabolite AF292 in dogs given AF267B (single dose and 13 weeks); type: in vivo, Beagle dog
Text: Internal Standard (AF261): 2-Methyl-8-methyl-1-thia-4,8-diaza-spiro[4.5]decan-3-one; MW 200. The analytical plasma samples originate from the in-life part of this study.

[7] = dogs, after 13 weeks daily AF267B 1.5, 3, 6 mg/kg po
[8] = female dogs, 13 weeks AF267B 1.5, 3, 6 mg/kg p.o.
[9] = female dogs, single dose (1×) of AF267B 1.5, 3, 6 mg/kg p.o.
[10] = male dogs, 13 weeks AF267B 1.5, 3, 6 mg/kg p.o.
[11] = male dogs, single dose (1×) of AF267B 1.5, 3, 6 mg/kg p.o.

| Compound | Tmax / peak in brain [1] [h] | H2O2-induced toxicity [2] | cell death induced by β-A25-35 (MTT) [2] | investigation time of the same juvenile (RID) [3] | α-APPs secretion (% of max CCh) (M1 mAChR) [%] | biovailability in rats [4] [%] | AUC(0-t) [6, 7] [ng·h/mL] | Cmax [6, 7] [ng/mL] | plasma half life [6, 7] [h] | MRT (area) ([6]; female dogs, 13 weeks) [h] | AUC(0-inf) [6, 8] | MRT (area) ([6]; female dogs, single dose (1×)) [h] | AUC(0-inf) [6, 9] | MRT (area) ([6]; male dogs, 13 weeks) [h] | AUC(0-inf) [6, 10] [ng·h/mL] | MRT (area) ([6]; male dogs, single dose (1×)) [h] | AUC(0-inf) [6, 11] [ng·h/mL] | α-APPs secretion, comparison in words (M1 mAChR) | further results |
| --- | --- | --- | --- | --- | --- | --- | --- | --- | --- | --- | --- | --- | --- | --- | --- | --- | --- | --- | --- |
| CC1=NCC2(CCN(C)CC2)S1 [AF150(S), 2,8-Dimethyl-1-thia-3,8-diaza-spiro[4.5]dec-2-ene] | 0.017 to 0.167 | protect the cells | significantly attenuated | decreased the investigation time | 50 | 31 | – | – | – | – | – | – | – | – | – | – | – | – | brain penetration time ([1]; iv): 1 min |
| CC[C@@H]1SC2(CCNCC2)NC1=O [AF292, (S)-2-Ethyl-1-thia-4,8-diaza-spiro[4.5]decan-3-one] | – | protect the cells | significantly attenuated | – | 100 | 49 | 616 to 2451 | 136 to 555 | 9 to 20 | 5.1 to 33.7 | F(13 w): 1866-12723; M(13 w): ng * h/ml | 8.7 to 18.7 | F (1×): outlier, 3901-4840; M (1×): ng * h/ml | 5 to 7.8 | 1609 to 4170 | 5 to 27.3 | 1142 to 10932 | Equipotent with AF267B | physical or behavioral signs ([5]; rats, 1, 10, 30, 60, or 100 mg/kg orally): No significant physical or behavioral signs; MTT assay against Aβ 25-35 & H2O2 in cell cultures transfected with rat M1 mAChR [2]: Equipotent with AF267B & CCh at 100; Cmax vs. the Cmax of AF267B ([6]; dogs): 50-90%; T1/2 in plasma, times longer than AF267B ([6]; dogs): 3-5 times; Elimination half life, Mean T½ (M) ([6]; male dogs): Mean T½ (M) = 6.34 +/− 5.9; h; bioavailability ([4]; 10 mg/kg, p.o.): 49% |
| CC[C@@H]1SC2(CCN(C)CC2)NC1=O [AF267B, (S)-2-ethyl-8-methyl-1-thia-4,8-diaza-spiro[4.5]decan-3-one] | 0.333 to 0.5 | protect the cells | significantly attenuated | decreased the investigation time | – | – | 712 to 3947 | 162 to 1352 | 1 to 2 | 3.6 to 5.2 | 1033 to 4164 ng·h/mL | 4.7 to 5.3 | 985 to 3179 ng·h/mL | 3.0 to 4.2 | 1041 to 4471 | 3.8 to 5 | 800 to 3691 | more efficacious and more potent than its racemate | time after dosing detected in the brain [1]: 2 to 240 min; IRWIN TEST, duration of signs ([5]; rat, 100 mg/kg, p.o.): duration 3-6 hrs.).; IRWIN TEST, onset of signs ([5]; rat, 100 mg/kg, p.o.): reduced startle response (onset: 0.5 hr;; IRWIN TEST, signs (carriage, apathy, corneal reflex, diarrhea, grooming, urination, salivation, lacrimation, locomotor activity, respiration, startle) ([5]; rat, 100 mg/kg, p.o.): 100 mg/kg: abnormalities of carriage,; IRWIN TEST ([5]; rat, 1 & 10 mg/kg, p.o.): 1 & 10 no effect on gross behavior; General Observation: Chromodacryorrhea, dose ([5]; rat, p.o.): Chromodacryorrhea: 100 mg/kg, p.o.; General Observation: Convulsion, dose ([5]; rat, p.o.): Convulsion: 50 mg/kg, p.o.; General Observation: Gnawing, dose ([5]; rat, p.o.): Gnawing; 50 mg/kg, p.o.; General Observation: Hypothermia, dose ([5]; rat, p.o.): Hypothermia: 50 mg/kg, p.o.; General Observation: Lacrimation, dose ([5]; rat, p.o.): Lacrimation: 50 mg/kg, p.o.; General Observation: Mydriasis, dose ([5]; rat, p.o.): Mydriasis: 25 mg/kg, p.o.; General Observation: Salivation, dose ([5]; rat, p.o.): Salivation: 40 mg/kg, p.o.; General Observation: Sedation, dose ([5]; rat, p.o.): Sedation: 100 mg/kg, p.o.; dose at which effects begin (salivation and lacrimation) ([5]; rats, po, first hour): about 40 mg/kg; Tmax [6, 7]: 1.5 to 3 h; α-APPs secretion, fold increase over control (M1 mAChR; 10^−4 M, 1 hour): about 6 fold; bioavailability ([4]; calculated for 2 mg/kg): 30% |
